System: SCID mice
Assay: Preclinical dosimetry from biodistribution in mice, extrapolated to 70-kg Standard Adult (OLINDA/EXM 1.0)
Type: in vivo
Settings: […] bladder voiding interval
Method: 3-5 mice were injected per timepoint with a mean 25.6±3.6 MBq of 18F-rhPSMA-7 and 28.5±4.8 MBq of 18F-rhPSMA-7.3, respectively. Mice, severe combined immunodeficiency (SCID) were used for the experiments.
Mice were sacrificed at the following timepoints: • ^18F-rhPSMA-7: 10, 20, 40, 60, 120 and 180 minutes after administration. • ^18F-rhPSMA-7.3: 10, 60, 120, 180 and 300 minutes after administration.
Urine, blood, heart, lung, spleen, pancreas, liver, stomach (emptied), small intestine (emptied), large intestine (emptied), kidneys, bladder, testis, fat, muscle (partial, femoral), femur, tail and brain. Urine was collected with a pipette in the CO2 gas chamber. In case of missing urination in the chamber the bladder was aspirated with an insulin syringe. Blood was withdrawn instantly after sacrifice with an insulin syringe from the heart. All other tissues and organs were dissected and transferred directly in plastic containers.
The counting rates of measurement samples were automatically corrected for decay. The radioactivity distribution ratios (unit: percentage of the injected dose (% ID) in the measurement samples were determined using the equation below. The sum of the counting rates from all measurement samples obtained from one mouse was designated as the counting rate for administrated radioactivity.
The radioactivity distribution ratio per unit weight of the measurement sample (unit: % ID/g) excluding urine and feces samples was determined by using the equation below. The weight of the measurement sample was determined by subtraction of the empty measurement container from the container including the sample.
For consistency of statistical calculations for each radiotracer the same number of time-points for ^18F-rhPSMA-7 and ^18F-rhPSMA-7.3 was used. Therefore, for ^18F-rhPSMA-7 the 10 min and 20 min time points were combined creating a 15 min endpoint.
The time-integral of activity for the accumulation in the significant source organs (AUCs) were generated both with numerical integration and physical decay according to J Juan et al., Journal of Pharmaceutical Sciences, 1993, 82:762-763.
In brief, to calculate a human dosimetry from the biodistribution in the mice, an extrapolation was necessary to account for the differences between the animals and humans. Normal-organ radiation doses were estimated for the 70-kg Standard Adult anatomic model using time-depending organ activity concentrations (in percent of the injected dose per gram, % ID/g) and total-body activities measured in the biodistribution studies in mice.
Tissue activity concentrations in mice were converted to tissue fractional activities in the 70-kg Standard Adult using the relative fractional organ masses in the Standard Adult and the “standard” 25-gramm mouse. Time-dependent total-body activity was fit to an exponential function and the difference between the injected activity and the total-body activity was assumed to be excreted to the urine because activity concentrations in the liver and GI tracer were low at all time points studied.
Organ residence time was calculated by numerical integration using the trapezoidal rule and the rest-of-body ^18F residence times was calculated as the difference between the total-body residence time and the sum of the organ and urine residence times. The bladder contents residence time was estimated using the dynamic voiding model in the OLINDA/EXM 1.0 dosimetry software. Finally, the Standard Adult mean organ dose equivalents (in mSv/MBq) and effective dose (also in mSv/MBq) were then calculated using OLIN DA/EXM 1.0.
Final calculation of radiation absorbed dose and dosimetry from biodistribution in mice: The tissues or organs in which a significant accumulation of radioactivity occurs (i.e., source organ) were kidney, spleen, lung, liver and heart. With respect to activity accumulation and clearance, a rapid clearance from blood and clearance to urine but relatively slow build-up in kidney was found.

CC(C)(C)[Si](F)(c1ccc(C(=O)NC[C@@H](NC(=O)CC[C@@H](C(=O)O)N2CCN(CC(=O)[O-])CCN(CC(=O)[O-])CCN(CC(=O)[O-])CC2)C(=O)N[C@H](CCCCNC(=O)CCC(=O)NCCC[C@@H](NC(=O)CC[C@H](NC(=O)N[C@@H](CCC(=O)O)C(=O)O)C(=O)O)C(=O)O)C(=O)O)cc1)C(C)(C)C.[Ga+3] [rhPSMA7.3, [^19F][^natGa]D-Dap-S-DOTAGA-rhPSMA7]
Adrenals ED Cont.: 5.52E−05 mSv/MBq | Adrenals EDE Cont.: 0.00E000 mSv/MBq | Adrenals dose Alpha: 0.00E000 mSv/MBq | Adrenals dose Beta: 3.12E−03 mSv/MBq | Adrenals dose Photon: 7.93E−03 mSv/MBq | Adrenals dose Total: 1.10E−02 mSv/MBq | Brain ED Cont.: 3.59E−05 mSv/MBq | Brain EDE Cont.: 0.00E000 mSv/MBq | Brain dose Alpha: 0.00E000 mSv/MBq | Brain dose Beta: 3.12E−03 mSv/MBq | Brain dose Photon: 4.07E−03 mSv/MBq | Brain dose Total: 7.19E−03 mSv/MBq | Breasts ED Cont.: 3.34E−04 mSv/MBq | Breasts EDE Cont.: 1.00E−03 mSv/MBq | Breasts dose Alpha: 0.00E000 mSv/MBq | Breasts dose Beta: 3.12E−03 mSv/MBq | Breasts dose Photon: 3.55E−03 mSv/MBq | Breasts dose Total: 6.67E−03 mSv/MBq | Gallbladder Wall ED Cont.: 0.00E000 mSv/MBq | Gallbladder Wall EDE Cont.: 0.00E000 mSv/MBq | Gallbladder Wall dose Alpha: 0.00E000 mSv/MBq | Gallbladder Wall dose Beta: 3.12E−03 mSv/MBq | Gallbladder Wall dose Photon: 7.46E−03 mSv/MBq | Gallbladder Wall dose Total: 1.06E−02 mSv/MBq | Heart Wall ED Cont.: 0.00E000 mSv/MBq | Heart Wall EDE Cont.: 0.00E000 mSv/MBq | Heart Wall dose Alpha: 0.00E000 mSv/MBq | Heart Wall dose Beta: 1.32E−03 mSv/MBq | Heart Wall dose Photon: 5.39E−03 mSv/MBq | Heart Wall dose Total: 6.71E−03 mSv/MBq | Kidneys ED Cont.: 3.59E−04 mSv/MBq | Kidneys EDE Cont.: 4.31E−03 mSv/MBq | Kidneys dose Alpha: 0.00E000 mSv/MBq | Kidneys dose Beta: 5.11E−02 mSv/MBq | Kidneys dose Photon: 2.07E−02 mSv/MBq | Kidneys dose Total: 7.18E−02 mSv/MBq | LLI Wall ED Cont.: 1.91E−03 mSv/MBq | LLI Wall EDE Cont.: 9.53E−04 mSv/MBq | LLI Wall dose Alpha: 0.00E000 mSv/MBq | LLI Wall dose Beta: 3.12E−03 mSv/MBq | LLI Wall dose Photon: 1.28E−02 mSv/MBq | LLI Wall dose Total: 1.59E−02 mSv/MBq | Liver ED Cont.: 3.00E−04 mSv/MBq | Liver EDE Cont.: 0.00E000 mSv/MBq | Liver dose Alpha: 0.00E000 mSv/MBq | Liver dose Beta: 9.70E−04 mSv/MBq | Liver dose Photon: 5.02E−03 mSv/MBq | Liver dose Total: 5.99E−03 mSv/MBq | Lungs ED Cont.: 7.93E−04 mSv/MBq | Lungs EDE Cont.: 7.93E−04 mSv/MBq | Lungs dose Alpha: 0.00E000 mSv/MBq | Lungs dose Beta: 1.95E−03 mSv/MBq | Lungs dose Photon: 4.66E−03 mSv/MBq | Lungs dose Total: 6.61E−03 mSv/MBq | Muscle ED Cont.: 4.83E−05 mSv/MBq | Muscle EDE Cont.: 0.00E000 mSv/MBq | Muscle dose Alpha: 0.00E000 mSv/MBq | Muscle dose Beta: 3.12E−03 mSv/MBq | Muscle dose Photon: 6.55E−03 mSv/MBq | Muscle dose Total: 9.67E−03 mSv/MBq | Osteogenic Cells ED Cont.: 1.32E−04 mSv/MBq | Osteogenic Cells EDE Cont.: 3.97E−04 mSv/MBq | Osteogenic Cells dose Alpha: 0.00E000 mSv/MBq | Osteogenic Cells dose Beta: 6.70E−03 mSv/MBq | Osteogenic Cells dose Photon: 6.52E−03 mSv/MBq | Osteogenic Cells dose Total: 1.32E−02 mSv/MBq | Ovaries ED Cont.: 3.14E−03 mSv/MBq | Ovaries EDE Cont.: 3.92E−03 mSv/MBq | Ovaries dose Alpha: 0.00E000 mSv/MBq | Ovaries dose Beta: 3.12E−03 mSv/MBq | Ovaries dose Photon: 1.26E−02 mSv/MBq | Ovaries dose Total: 1.57E−02 mSv/MBq | Pancreas ED Cont.: 5.70E−05 mSv/MBq | Pancreas EDE Cont.: 0.00E000 mSv/MBq | Pancreas dose Alpha: 0.00E000 mSv/MBq

— patent publication US12357711B2, “PSMA binding dual mode radiotracer and therapeutic” (Technische Universität München, priority 2019, dated 2025)
